SMILES strings stand for the structures. Marks after values point to notes of the source that are not given here.

A short description of experiment [1]: Diuretic effect of Dexamethasone in intact Wistar rats. The format is in vivo. The conditions noted are these: 24-hour treatment, Dex 1 mg/kg (RU486 100 mg/kg in combination), mean ± SD. From the text:
(§1) To determine the effect of glucocorticoids on diuretic effect and NPR-A expression in renal medulla, 15 intact Wistar rats were randomized to receive Dexamethasone (Dex), vehicle and glucocorticoid receptor (GR) antagonist RU 486.

Experiment [2] has as its system NPR-A. Kind of experiment: NPR-A expression in renal medulla of intact rats (western blotting). The conditions noted are these: intact Wistar rats, 24-hour treatment, Dex 1 mg/kg (RU486 100 mg/kg in combination), mean ± SD. The format is in vivo.
From the text: as §1
In general terms: Immunoblotting shows a protein as a band on a membrane.

For experiment [3], the system named is NPR-A. Put plainly: NPR-A expression in IMCD cells (immunofluorescence). The settings on record: for NPR-A expression (24 hours) / NPR-A expression (48 hours): rat IMCD cells. It counts as cell-based, Wistar rats. Also on record: key to NPR-A expression (24 hours) / NPR-A expression (48 hours): + = low; ++ = moderate; +++ = high. From the text: IMCD cells from Wistar rats were isolated and cultured using the method previously described by Ye Q et al.: Endothelin inhibits NPR-A and stimulates eNOS gene expression in rat IMCD cells. Hypertension 41, 675-681 (2003). […] […] The Density of membrane NPR-A in IMCD cells were visualized by immunofluorescence.

Experiment [4] in a line: Diuretic effect in rats with decompensated heart failure. The format is in vivo, Wistar rats. The conditions noted are these: 1 mg/kg, 12 hours, mean ± SD. On the procedure:
(§2) To determine the effects of corticosteroids on systemic volume in HF, 15 Wistar rats with HF were randomized to receive NCX-1015 (n=5), or prednisolone (n=5), or vehicle (n=5). HF model was accomplished by left anterior descending artery ligation, and then the survived rats were raised for 12 weeks to have decompensated HF (i.e. HF with fluid accumulation). Parameters on urinary volume and urinary sodium in 12 hours were collected.

For experiment [5], the system named is NPR-A. Put plainly: NPR-A expression in renal medulla of heart failure rats (western blotting). It counts as in vivo, Wistar rats. As to the method:
as §2

For the next experiment, the system named is AT1 receptor. Put plainly: AT1 receptor density in the kidney of rats with decompensated heart failure (western blotting). It counts as in vivo, Wistar rats. The conditions noted are these: 1 mg/kg, 24-hour treatment, mean ± SD. From the text: (§3) To determine the effects of corticosteroids on RAAS in HF, 15 Wistar rats with HF were randomized to receive NCX-1015 (n=5), or prednisolone (n=5), or vehicle (n=5).

In a further experiment the test system is angiotensin II. Put plainly: Plasma angiotensin II in rats with decompensated heart failure. It counts as in vivo, Wistar rats. The settings on record: 1 mg/kg, 24-hour treatment, mean ± SD.
From the text: as §3

Another experiment concerns aldosterone. Put plainly: Plasma aldosterone in rats with decompensated heart failure. It counts as in vivo, Wistar rats. The conditions noted are these: 1 mg/kg, 24-hour treatment, mean ± SD.
From the text: as §3

The subject of another experiment is V2 receptor. Put plainly: V2 receptor density in the kidney of rats with decompensated heart failure (western blotting). It counts as in vivo, Wistar rats. The conditions noted are these: 1 mg/kg, 24-hour treatment, mean ± SD. From the text:
(§4) To determine the effects of corticosteroids on vasopressin axis in HF, 15 Wistar rats with HF were randomized to receive NCX-1015 (n=5), or prednisolone (n=5), or vehicle (n=5).

For another experiment, the system named is vasopressin. Put plainly: Plasma vasopressin in rats with decompensated heart failure. It counts as in vivo, Wistar rats. The conditions noted are these: 1 mg/kg, 24-hour treatment, mean ± SD.
From the text: as §4

Where [6] appears, read: 10^−7 mol/L, membrane NPR-A density.
[7] abbreviates: 10^−7 mol/L, membrane NPR-A density (Table 3).
[8] abbreviates: 10^−6 mol/L, membrane NPR-A density (Table 3).
Where [9] appears, read: 10^−6 mol/L, membrane NPR-A density.

As for `C[C@@H]1C[C@H]2[C@@H]3CCC4=CC(=O)C=C[C@]4(C)[C@@]3(F)[C@@H](O)C[C@]2(C)[C@@]1(O)C(=O)CO` [Dex, Dexamethasone], in experiment [1], the Urinary sodium came out at 3.50 ± 0.39 mmol/24 h and the Urinary volume stood at 16.4 ± 2.4 ml/24 h. Also, in the experiment on NPR-A [2], the NPR-A expression was 132.2 ± 9.7* 100% of vehicle.

In the case of `C[C@]12C=CC(=O)C=C1CC[C@@H]1[C@@H]2[C@@H](O)C[C@@]2(C)[C@H]1CC[C@]2(O)C(=O)COC(=O)c1ccc(CO[N+](=O)[O-])cc1` [NCX-1015, prednisolone 21-[(4′-nitro-oxymethyl)benzoate]], in the experiment on NPR-A [3] (in vitro, fraction of the prednisolone dose), the “Dose needed to attain the same effect of prednisolone on renal NPR-A” value is listed as “about 1/10”. Moreover, the “Time needed to attain the same effect of prednisolone on renal NPR-A” value in the experiment on NPR-A [3] (in vitro, fraction of the prednisolone time) is given as “about half”. In the experiment with NPR-A [3] (setting [6]), the “NPR-A expression (24 hours)” value is recorded as “++” and the “NPR-A expression (48 hours)” value was “+++”. Besides, in experiment [4], the Urinary sodium was 1.43 ± 0.15 mmol/12 h and the Urinary volume stood at 8.8 ± 1.5 ml/12 h. Besides, the “NPR-A expression in the renal medulla, higher than vehicle-treated rats” value in the experiment with NPR-A [5] is on record as 42.8%. Also, the “AT1 receptor density in the kidney” value in the experiment on AT1 receptor is on record as 43.14 ± 7.07 % of vehicle. For the same compound, the “Plasma angiotensin II” value in the experiment on angiotensin II was 412.20 ± 64.99*^& pg/ml. The compound also came in with a Plasma aldosterone with aldosterone of 0.99 ± 0.09 ng/mL. Also, the “V2 receptor density in the kidney” value in the experiment on V2 receptor was 54.06 ± 16.15 % of vehicle. The same compound registered a Plasma vasopressin in the experiment with vasopressin of 32.14 ± 5.47 pg/mL.

Take `C[C@]12CCC(=O)C=C1CC[C@@H]1[C@@H]2[C@@H](O)C[C@@]2(C)[C@H]1CC[C@]2(O)C(=O)COC(=O)c1ccc(CO[N+](=O)[O-])cc1` [NCX-1022]: in the experiment on NPR-A [3] (setting [7]), the “NPR-A expression (24 hours)” value is on record as “++” and the “NPR-A expression (48 hours)” value is listed as “+++”.

For the compound `C[C@]12CCC(=O)C=C1CC[C@@H]1[C@@H]2[C@@H](O)C[C@@]2(C)[C@H]1CC[C@]2(O)C(=O)CO` [hydrocortisone], in the experiment on NPR-A [3] (setting [8]), the “NPR-A expression (24 hours)” value is “+” and the “NPR-A expression (48 hours)” value is reported as “++”.

Regarding `C[C@]12C=CC(=O)C=C1CC[C@@H]1[C@@H]2[C@@H](O)C[C@@]2(C)[C@H]1CC[C@]2(O)C(=O)CO` [prednisolone], in the experiment on NPR-A [3] (setting [9]), the “NPR-A expression (24 hours)” value is given as “+” and the “NPR-A expression (48 hours)” value is “++”. In experiment [4], this compound came in with a Urinary sodium of 1.08 ± 0.1 mmol/12 h and a Urinary volume of 6.1 ± 0.7 ml/12 h. For the same compound, the “NPR-A expression in the renal medulla, higher than vehicle-treated rats” value in the experiment on NPR-A [5] was determined as 26.5%. Moreover, the “AT1 receptor density in the kidney” value with AT1 receptor was 67.06 ± 12.96 % of vehicle. The “Plasma angiotensin II” value in the experiment with angiotensin II is listed as 665.86 ± 113.90^$ pg/ml. Also, the Plasma aldosterone in the experiment with aldosterone came to 1.39 ± 0.26 ng/mL. In the experiment on V2 receptor, the “V2 receptor density in the kidney” value is recorded as 79.80 ± 9.44^$ % of vehicle. In the experiment with vasopressin, the Plasma vasopressin is on record as 45.72 ± 8.35^$ pg/ml.

(Values after patent US8716268B2, “Nitrate esters of corticoid compounds useful as diuretics” (priority 2010, dated 2014).)
